Measurements published in patent EP2628479A1, “Cosmetic use of climbazol” (Henkel AG&Co. KGAA, priority 2011, dated 2013).

Test system: Co-Kultur-System
Assay: Collagen neosynthesis in co-culture system (2D fibroblast culture with 3D epidermis model insert), P1 NP secreted into the medium
Assay type: cell-based
Conditions: unbehandelt = 107
Text: Zum Nachweis der Kollagen-Neusynthese wurde ein Co-Kultur-System verwendet, das aus einer zweidimensionalen Fibroblasten-Kultur besteht, auf die in einem Insert ein dreidimensionales Epidermismodell aufgesetzt wurde. Über das Nährmedium kann ein Stoffaustausch zwischen den Fibroblasten und den Keratinocyten des Epidermismodells erfolgen.
Als Kontrollen für die Syntheseinduktion wurden Retinsäure und Retinol eingesetzt.

In the case of `CC(C)(C)C(=O)C(Oc1ccc(Cl)cc1)n1ccnc1` (stereo not drawn) [Climbazol, Imidazolyl-1-(4-chlorophenoxy)-3,3-dimethylbutane-2-one], the “P1 NP” value (Climbazol 0,005%) is reported as 135 µg/mL.
With `CC1=C(/C=C/C(C)=C/C=C/C(C)=C/C(=O)O)C(C)(C)CCC1` [Retinsäure] the “P1 NP” value (Retinsäure 5µM) was 200 µg/mL.
`CC1=C(/C=C/C(C)=C/C=C/C(C)=C/CO)C(C)(C)CCC1` [Retinol] was tested, and the “P1 NP” value (Retinol 5µM) was 146 µg/mL.
